From ChEMBL document CHEMBL3779768, “Simple N(ε)-thioacetyl-lysine-containing cyclic peptides exhibiting highly potent sirtuin inhibition” (Bioorg Med Chem Lett, 2016) come the findings set out here.

*1 amine or outer side, *2 acyl side, *3 side chain or, on linkers, in order; H or OH if unused. Where a SMILES comes first, the peptide text is derived from it. Bridges are numbered along the chain shown (N, C = ends). [ ]: non-standard residue; d: D form. Suberoyl(Gly)2 = O=C(CCCCCCC(=O)NCC(=O)[*:2])NCC(=O)[*:1]; Lys(Thioacetyl) = CC(=S)NCCCC[C@H](N)C(=O)O; Suberoyl = O=C(CCCCCCC(=O)[*:2])[*:1]; Adipoyl = O=C(CCCCC(=O)[*:2])[*:1]; Suc = O=C(CCC(=O)[*:2])[*:1] A value given as a limit tells only on which side of the number the result lay.

Assay [1] deals with T1, NAD-dependent protein deacetylase sirtuin-3, mitochondrial (Homo sapiens, UniProt Q9NTG7).
T1 sequence (Q9NTG7 whole entry): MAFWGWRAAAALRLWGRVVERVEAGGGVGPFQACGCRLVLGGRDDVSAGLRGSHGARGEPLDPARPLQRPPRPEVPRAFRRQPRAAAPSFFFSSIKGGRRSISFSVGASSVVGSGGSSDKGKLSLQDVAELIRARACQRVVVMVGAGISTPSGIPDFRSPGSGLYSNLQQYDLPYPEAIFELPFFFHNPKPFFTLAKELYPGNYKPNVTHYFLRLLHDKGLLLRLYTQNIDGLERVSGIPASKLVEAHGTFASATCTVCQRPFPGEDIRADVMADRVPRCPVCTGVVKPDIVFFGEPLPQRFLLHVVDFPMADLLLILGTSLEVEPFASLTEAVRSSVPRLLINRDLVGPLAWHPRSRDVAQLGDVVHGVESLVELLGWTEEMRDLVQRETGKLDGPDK
Put plainly: Inhibition of human SIRT3 expressed in Escherichia coli BL21 (DE3) assessed as deacetylation using Z-Lys(Acetyl)-AMC as substrate measured after 4 hrs by fluorescence based microplate reader method in presence of 500 uM beta NAD+.

Assay [2] concerns the target T2, NAD-dependent protein deacetylase sirtuin-1 (Homo sapiens, UniProt Q96EB6).
T2 sequence (Q96EB6 whole entry): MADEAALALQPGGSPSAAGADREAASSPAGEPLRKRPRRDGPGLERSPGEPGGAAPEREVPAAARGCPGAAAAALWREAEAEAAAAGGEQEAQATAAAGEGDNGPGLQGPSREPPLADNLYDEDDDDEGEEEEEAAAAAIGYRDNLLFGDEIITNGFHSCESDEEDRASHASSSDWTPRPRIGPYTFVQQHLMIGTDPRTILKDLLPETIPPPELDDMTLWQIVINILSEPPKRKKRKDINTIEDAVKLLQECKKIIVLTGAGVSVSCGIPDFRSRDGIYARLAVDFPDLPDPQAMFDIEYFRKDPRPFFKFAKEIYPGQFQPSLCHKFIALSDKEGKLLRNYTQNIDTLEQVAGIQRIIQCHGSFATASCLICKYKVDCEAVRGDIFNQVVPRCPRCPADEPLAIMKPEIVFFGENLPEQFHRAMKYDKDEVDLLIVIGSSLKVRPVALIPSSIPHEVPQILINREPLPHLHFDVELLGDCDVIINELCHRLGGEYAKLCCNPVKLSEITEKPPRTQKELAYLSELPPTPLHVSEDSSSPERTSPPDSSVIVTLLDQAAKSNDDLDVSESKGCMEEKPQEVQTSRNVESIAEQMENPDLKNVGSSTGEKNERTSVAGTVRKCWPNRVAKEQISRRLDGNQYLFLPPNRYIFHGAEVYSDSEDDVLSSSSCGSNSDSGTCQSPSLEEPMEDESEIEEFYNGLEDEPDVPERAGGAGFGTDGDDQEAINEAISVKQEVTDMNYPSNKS
Put plainly: Inhibition of human SIRT1 (133 to 747 amino acid residues) assessed as deacetylation using Z-Lys(Acetyl)-AMC as substrate measured after 4 hrs by fluorescence based microplate reader method in presence of 500 uM beta-NAD+.

The target of assay [3] is T1, NAD-dependent protein deacetylase sirtuin-3, mitochondrial. Put plainly: Inhibition of SIRT3 (unknown origin).
The target in assay [4] is T3, NAD-dependent protein deacetylase sirtuin-2 (Homo sapiens, UniProt Q8IXJ6).
T3 sequence (Q8IXJ6 whole entry): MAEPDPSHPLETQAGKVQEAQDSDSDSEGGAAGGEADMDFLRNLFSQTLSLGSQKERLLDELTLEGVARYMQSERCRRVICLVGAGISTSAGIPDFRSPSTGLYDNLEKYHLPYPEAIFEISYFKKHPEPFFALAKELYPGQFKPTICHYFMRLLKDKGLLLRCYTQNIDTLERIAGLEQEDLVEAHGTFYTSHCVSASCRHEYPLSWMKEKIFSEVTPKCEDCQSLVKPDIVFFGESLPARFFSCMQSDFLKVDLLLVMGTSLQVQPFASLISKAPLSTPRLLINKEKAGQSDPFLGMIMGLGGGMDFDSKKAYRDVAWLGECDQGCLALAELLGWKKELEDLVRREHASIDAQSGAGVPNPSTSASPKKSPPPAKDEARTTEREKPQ
The assay can be described thus: Inhibition of human SIRT2.

Assay [5] addresses T2, NAD-dependent protein deacetylase sirtuin-1. The assay can be described thus: Inhibition of SIRT1 (unknown origin).
For assay [6], the target named is T3, NAD-dependent protein deacetylase sirtuin-2. Put plainly: Inhibition of recombinant His6 tagged human SIRT2 using 0.39 mM H2N-HK-[N(epsilon)-acetyl-lysine]-LM-COOH as substrate measured after 12 mins HPLC analysis in presence of 0.5 mM beta-NAD+.
Assay [7] addresses T1, NAD-dependent protein deacetylase sirtuin-3, mitochondrial. Put plainly: Inhibition of recombinant His6 tagged human SIRT3 using 0.105 mM H2N-HK-[N(epsilon)-acetyl-lysine]-LM-COOH as substrate measured after 10 mins HPLC analysis in presence of 3.5 mM beta-NAD+.
In assay [8] the target is T2, NAD-dependent protein deacetylase sirtuin-1. Put plainly: Inhibition of recombinant GST-tagged human SIRT1 using 0.3 mM H2N-HK-[N(epsilon)-acetyl-lysine]-LM-COOH as substrate measured after 10 mins HPLC analysis in presence of 0.5 mM beta-NAD+.

As a reminder, the IC50 is the midpoint of a concentration-inhibition curve. On to `Cc1cc(C)nc(SCC(=O)Nc2ncc(Cc3cccc4ccccc34)s2)n1`, for which the IC50 in assay [1] and in assay [2] was greater than 140000 nM throughout.

On to `CC[C@H](C)[C@@H]1NC(=O)[C@H](CCCNC(=N)N)NC(=O)[C@H](Cc2ccccc2)NC(=O)[C@H](CC(N)=O)NC(=O)[C@@H](CO)NC(=O)[C@H](Cc2ccc(O)cc2)NC(=O)CSC[C@@H](C(N)=O)NC(=O)[C@H](CO)NC(=O)[C@H](CO)NC(=O)[C@H](CC(N)=O)NC(=O)[C@H](CO)NC(=O)[C@H](Cc2ccc(O)cc2)NC(=O)[C@H](CCCNC(=N)N)NC(=O)[C@H](CCCCNC(=O)C(F)(F)F)NC1=O`, for which the IC50 came out at 480 nM in assay [3], 3.2 nM in assay [4] and 47 nM in assay [5].

For the compound `CSCC[C@H](NC(=O)[C@@H]1CCCCNC(=O)CNC(=O)CCC(=O)NCC(=O)NCCCC[C@H](NC(C)=O)C(=O)N[C@@H](CCCCN)C(=O)N[C@@H](CCCCNC(C)=S)C(=O)N1)C(N)=O`, the results for the IC50 in assay [6], in assay [7] and in assay [8] were 58.9 nM, 103 nM and 56.8 nM, respectively.

Consider `CSCC[C@H](NC(=O)[C@@H]1CCCCNC(=O)CNC(=O)CCCCC(=O)NCC(=O)NCCCC[C@H](NC(C)=O)C(=O)N[C@@H](CCCCN)C(=O)N[C@@H](CCCCNC(C)=S)C(=O)N1)C(N)=O`, for which the results for the IC50 in assay [6], in assay [7] and in assay [8] were 53.1 nM, 52.5 nM and 38.7 nM, respectively.

Regarding `CSCC[C@H](NC(=O)[C@H](CC(C)C)NC(=O)[C@H](CCCCNC(C)=S)NC(=O)[C@H](CCCCN)NC(=O)[C@H](Cc1c[nH]cn1)NC(C)=O)C(N)=O` (Ac-HK[Lys(Thioacetyl)]LM-NH2), the 50% inhibitory concentration (IC50) was 332 nM in assay [6] and 165 nM in assay [8].

As for `CSCC[C@H](NC(=O)[C@@H]1CCCCNC(=O)CCCCC(=O)NCCCC[C@H](NC(C)=O)C(=O)N[C@@H](CCCCN)C(=O)N[C@@H](CCCCNC(C)=S)C(=O)N1)C(N)=O` (Ac-KK[Lys(Thioacetyl)]KM-NH2; linker 1-4 via Adipoyl), the figures for the IC50 in assay [6] and in assay [8] were 134 nM and 63.5 nM, respectively.

For `CSCC[C@H](NC(=O)[C@@H]1CCCCNC(=O)CNC(=O)CCCCCCC(=O)NCC(=O)NCCCC[C@H](NC(C)=O)C(=O)N[C@@H](CCCCN)C(=O)N[C@@H](CCCCNC(C)=S)C(=O)N1)C(N)=O` (Ac-KK[Lys(Thioacetyl)]KM-NH2; linker 1-4 via Suberoyl(Gly)2), the IC50 in assay [6] stood at 144 nM; in assay [7], 42.9 nM; in assay [8] it was 2.3 nM.

As to `CSCC[C@H](NC(=O)[C@@H]1CCCCNC(=O)CCCCCCC(=O)NCCCC[C@H](NC(C)=O)C(=O)N[C@@H](CCCCN)C(=O)N[C@@H](CCCCNC(C)=S)C(=O)N1)C(N)=O` (Ac-KK[Lys(Thioacetyl)]KM-NH2; linker 1-4 via Suberoyl), the IC50 in assay [6] amounted to 404 nM; in assay [8], 37.1 nM.

Consider `CSCC[C@H](NC(=O)[C@@H]1CCCCNC(=O)CCC(=O)NCCCC[C@H](NC(C)=O)C(=O)N[C@@H](CCCCN)C(=O)N[C@@H](CCCCNC(C)=S)C(=O)N1)C(N)=O` (Ac-KK[Lys(Thioacetyl)]KM-NH2; linker 1-4 via Suc), for which the IC50 is 10.1 nM in assay [6] and 75.2 nM in assay [8].
